Values after ≈ are worked out from the molar mass of the structure shown. Like-named read-outs stand apart in the source and are kept apart here.
Key:
Proteus rettgari 13501 = test: Antibacterial spectrum (minimum inhibitory concentration); type: cell-based
Excerpt: (§1) The antibacterial spectra against various microorganisms are shown in Table 2 in comparison with those of aminobenzyl penicillin (AB-Pc) and cefoxitin (CFX).

[1] = tested on: Pseudomonas aeruginosa A-3; test: as above; type: cell-based; settings: A3
Excerpt: as §1

Bacillus subtilis 6633 = test: as above; type: cell-based
Excerpt: as §1

Citrobacter 1 (PC ase) = test: as above; type: cell-based
Excerpt: as §1

Hafnia alvei 978 = test: as above; type: cell-based
Excerpt: as §1

[2] = tested on: Escherichia coli EC-1 (PC ase I); test: as above; type: cell-based
Excerpt: as §1

Klebsiella 32 (CS ase) = test: as above; type: cell-based
Excerpt: as §1

[3] = tested on: Staphylococcus epidermidis 1228; test: as above; type: cell-based
Excerpt: as §1

[4] = tested on: Klebsiella pneumoniae 602; test: as above; type: cell-based
Excerpt: as §1

[5] = tested on: Staphylococcus aureus 209P JC-1; test: as above; type: cell-based
Excerpt: as §1

Proteus inconstans Km115 = test: as above; type: cell-based; settings: Providencia alcalifaciens
Excerpt: as §1

Klebsiella 25 (PC ase) = test: as above; type: cell-based
Excerpt: as §1

[6] = tested on: Escherichia coli EC-59 (PC ase II); test: as above; type: cell-based
Excerpt: as §1

Citrobacter 24 (CS ase) [7] = test: as above; type: cell-based
Excerpt: as §1

Enterobacter cloacae 977 = test: as above; type: cell-based
Excerpt: as §1

[8] = tested on: Excherichia coli NIHJ JC-2; test: as above; type: cell-based
Excerpt: as §1

Pseudomonas putida 5121 = test: as above; type: cell-based
Excerpt: as §1

Serratia marcescens NHL = test: as above; type: cell-based
Excerpt: as §1

[9] = tested on: Enterobacter aerogenes 972; test: as above; type: cell-based; settings: Klebsiella aerogenes
Excerpt: as §1

Proteus vulgaris 874 = test: as above; type: cell-based
Excerpt: as §1

[10] = tested on: Pseudomonas aeruginosa 10490; test: as above; type: cell-based
Excerpt: as §1

[11] = tested on: Escherichia coli EC-68 (PC ase IV); test: as above; type: cell-based
Excerpt: as §1

Proteus morganii 3168 = test: as above; type: cell-based; settings: Morganella morganii
Excerpt: as §1

[12] = Stability: half-life period at different values of pH (ultraviolet absorption spectroscopy); type: physicochemical; settings: read-out: half-life period t1/2 (converted)
Excerpt: (11) Stability: The half-life period at different values of pH are as follows: […]
pH 4.0-7.0: Mcllvaine's buffer solution (sodium phosphate-citric acid) pH 10.0: 0.1M sodium carbonate-sodium hydrogen carbonate buffer solution […]
Ultraviolet absorption spectroscopy
(9) Stability: The half-life period at different values of pH are as follows:
The solvent and measurement are the same as in the substance KA-6643-A.

Solubility in solvent = type: physicochemical
Citrobacter 24 (CS ase) [13] = test: Antibacterial activity-improving action against β-lactam-resistant bacteria (disc, inhibiting zone); type: cell-based; settings: Medium including Citrobacter 24; AB-Pc 1 mg/ml, KA-6643-A or -B 10 γ/ml, alone or combined; 8 mm disc, 37° C., 18 hours
Experimental: (§2) In the Penassay agar (12 g of which was dissolved in 500 ml of distilled water, Kyoei Pharm. Co., Ltd.) were inoculated Escherichia coli EC-1 (PC ase) and citrobacter 24 (CS ase) which were β-lactamase-producing organisms, and 10 ml of the inoculated medium was flowed on a Petri dish of 9 cm in diameter and solidified to give a test medium.
(§3) In this agar medium were placed pulp discs of 8 mm in diameter into which was introduced with […] of aqueous solutions of antibiotics, respectively, followed by culturing at 37° C. for 18 hours and then measuring the diameter of an inhibiting zone around each disc.

[14] = tested on: Escherichia coli EC-1 (PC ase); test: as above; type: cell-based; settings: Medium including E. coli EC-1; AB-Pc 1 mg/ml, KA-6643-A or -B 10 γ/ml, alone or combined; 8 mm disc, 37° C., 18 hours
Experimental: as §2, §3

[15] = target: β-lactamase enzyme penicillin amidohydrolase EC 3.5.2.6; test: β-Lactamase-inhibitory activity; type: biochemical; settings: method of C. Reading and M. Cole
Experimental: When using as β-lactamase enzyme penicillin amidohydrolase EC 3.5.2.6 (Tokyo Chem. Syn. Co., Ltd.) derived from bacteria belonging to the genus Bacillus, the I50 value of the substance KA-6643-A was 0.5 ng/ml and that of the substance KA-6643-B was 12.8 ng/ml.
The I50 value was measured in accordance with the method of C. Reading and M. Cole [Antimicr. Agents and Chemoth. 11, 852-857 (1977)].

[16] = cited from earlier work
[17] = mcilvaine's buffer, pH 4.0, Mcllvaine's buffer
[18] = mcilvaine's buffer, pH 6.0, Mcllvaine's buffer
[19] = mcilvaine's buffer, pH 7.0, Mcllvaine's buffer
[20] = pH 10.0, 0.1M sodium carbonate-sodium hydrogen carbonate buffer
[21] = organic solvents: acetone, chloroform, ethyl acetate, petroleum ether

| Structure (SMILES) | MIC (Proteus rettgari 13501) | MIC [1] | MIC (Bacillus subtilis 6633) | MIC (Citrobacter 1 (PC ase)) | MIC (Hafnia alvei 978) | MIC [2] | MIC (Klebsiella 32 (CS ase)) | MIC [3] | MIC [4] | MIC [5] | MIC (Proteus inconstans Km115) | MIC (Klebsiella 25 (PC ase)) | MIC [6] | MIC (Citrobacter 24 (CS ase) [7]) | MIC (Enterobacter cloacae 977) | MIC [8] | MIC (Pseudomonas putida 5121) | MIC (Serratia marcescens NHL) | MIC [9] | MIC (Proteus vulgaris 874) | also measured |
| --- | --- | --- | --- | --- | --- | --- | --- | --- | --- | --- | --- | --- | --- | --- | --- | --- | --- | --- | --- | --- | --- |
| CC1(C)S[C@@H]2[C@H](NC(=O)[C@H](N)c3ccccc3)C(=O)N2[C@H]1C(=O)O [AB-Pc, aminobenzyl penicillin, reference compound] | 0.2 µg/mL (≈ 0.572 µM) | > 100 µg/mL | ≤ 0.025 µg/mL | > 100 µg/mL | 50 µg/mL (≈ 143 µM) | > 100 µg/mL | > 100 µg/mL | 0.78 µg/mL (≈ 2.23 µM) | 12.5 µg/mL (≈ 35.8 µM) | 0.05 µg/mL (≈ 0.143 µM) | 100 µg/mL (≈ 286 µM) | > 100 µg/mL | > 100 µg/mL | > 100 µg/mL | 100 µg/mL (≈ 286 µM) | 6.25 µg/mL (≈ 17.9 µM) | > 100 µg/mL | 50 µg/mL (≈ 143 µM) | 6.25 µg/mL (≈ 17.9 µM) | > 100 µg/mL | MIC [10]: 100 µg/mL (≈ 286 µM); MIC [11]: > 100 µg/mL; MIC (Proteus morganii 3168): > 100 µg/mL |
| CO[C@@]1(NC(=O)Cc2cccs2)C(=O)N2C(C(=O)O)=C(COC(N)=O)CS[C@@H]21 [CFX, cefoxitin, reference compound] | 1.56 µg/mL (≈ 3.65 µM) | > 100 µg/mL | 1.56 µg/mL (≈ 3.65 µM) | > 100 µg/mL | 6.25 µg/mL (≈ 14.6 µM) | 3.13 µg/mL (≈ 7.32 µM) | > 100 µg/mL | 1.56 µg/mL (≈ 3.65 µM) | 0.78 µg/mL (≈ 1.82 µM) | 1.56 µg/mL (≈ 3.65 µM) | 6.25 µg/mL (≈ 14.6 µM) | 6.25 µg/mL (≈ 14.6 µM) | 6.25 µg/mL (≈ 14.6 µM) | > 100 µg/mL | > 100 µg/mL | 6.25 µg/mL (≈ 14.6 µM) | > 100 µg/mL | 12.5 µg/mL (≈ 29.2 µM) | > 100 µg/mL | 6.25 µg/mL (≈ 14.6 µM) | MIC [10]: > 100 µg/mL; MIC [11]: 6.25 µg/mL (≈ 14.6 µM); MIC (Proteus morganii 3168): 6.25 µg/mL (≈ 14.6 µM) |
| CC(=O)NC=C[S+]([O-])C1=C(C(=O)O)N2C(=O)C(C(C)(C)O)C2C1 (stereo not shown) [KA-6643-A] | 1.56 µg/mL (≈ 4.56 µM) | 6.25 µg/mL (≈ 18.3 µM) | 0.2 µg/mL (≈ 0.584 µM) | 0.78 µg/mL (≈ 2.28 µM) | 0.2 µg/mL (≈ 0.584 µM) | 0.2 µg/mL (≈ 0.584 µM) | 3.13 µg/mL (≈ 9.14 µM) | 0.78 µg/mL (≈ 2.28 µM) | 0.2 µg/mL (≈ 0.584 µM) | 0.39 µg/mL (≈ 1.14 µM) | 0.78 µg/mL (≈ 2.28 µM) | 0.78 µg/mL (≈ 2.28 µM) | 0.05 µg/mL (≈ 0.146 µM) | 1.56 µg/mL (≈ 4.56 µM) | 0.78 µg/mL (≈ 2.28 µM) | 0.05 µg/mL (≈ 0.146 µM) | 1.56 µg/mL (≈ 4.56 µM) | 0.2 µg/mL (≈ 0.584 µM) | 0.1 µg/mL (≈ 0.292 µM) | 0.39 µg/mL (≈ 1.14 µM) | half-life [12, 17]: 33 h; half-life [12, 18]: 144 h; half-life [12, 19]: 187 h; half-life ([12]; pH 7.8): 110 h; half-life [12, 20]: 2.8 h; Solubility in solvent (Solubility in solvent; [21]): substantially insoluble; Solubility in solvent (Solubility in solvent; water): Readily soluble; Diameter of inhibiting zone (Citrobacter 24 (CS ase) [13]): 16.0 mm; Diameter of inhibiting zone [14]: 18.0 mm; MIC [10]: 6.25 µg/mL (≈ 18.3 µM); MIC [11]: 0.05 µg/mL (≈ 0.146 µM); MIC (Proteus morganii 3168): 0.39 µg/mL (≈ 1.14 µM); I50 value [15]: 0.5 ng/mL |
| CC(=O)NC=C[S+]([O-])C1=C(C(=O)O)N2C(=O)C(C(C)(C)OS(=O)(=O)O)C2C1 (stereo not shown) [KA-6643-B] | 50 µg/mL (≈ 118 µM) | 50 µg/mL (≈ 118 µM) | 6.25 µg/mL (≈ 14.8 µM) | 6.25 µg/mL (≈ 14.8 µM) | 6.25 µg/mL (≈ 14.8 µM) | 3.13 µg/mL (≈ 7.41 µM) | 12.5 µg/mL (≈ 29.6 µM) | 6.25 µg/mL (≈ 14.8 µM) | 6.25 µg/mL (≈ 14.8 µM) | 6.25 µg/mL (≈ 14.8 µM) | 12.5 µg/mL (≈ 29.6 µM) | 6.25 µg/mL (≈ 14.8 µM) | 1.56 µg/mL (≈ 3.69 µM) | 12.5 µg/mL (≈ 29.6 µM) | 6.25 µg/mL (≈ 14.8 µM) | 1.56 µg/mL (≈ 3.69 µM) | 100 µg/mL (≈ 237 µM) | 6.25 µg/mL (≈ 14.8 µM) | 3.13 µg/mL (≈ 7.41 µM) | 12.5 µg/mL (≈ 29.6 µM) | half-life [12, 17]: 21.8 h; half-life [12, 18]: 210 h; half-life [12, 19]: 170 h; half-life ([12]; pH 7.8): 130 h; half-life [12, 20]: 7.9 h; Solubility in solvent (Solubility in solvent; [21]): substantially insoluble; Solubility in solvent (Solubility in solvent; water): Readily soluble; MIC [10]: 25 µg/mL (≈ 59.2 µM); MIC [11]: 3.13 µg/mL (≈ 7.41 µM); MIC (Proteus morganii 3168): 12.5 µg/mL (≈ 29.6 µM); I50 value [15]: 12.8 ng/mL |
| CC(=O)N/C=C/[S+]([O-])C1=C(C(=O)O)N2C(=O)C(C(C)OS(=O)(=O)O)C2C1 (stereo not shown) [MM-4550] |  |  |  |  |  |  |  |  |  |  |  |  |  |  |  |  |  |  |  |  | half-life period t1/2 ([16]; pH 4): 5.5 h; half-life period t1/2 ([16]; pH 6): 18 h; half-life period t1/2 ([16]; pH 7): 10.5 h; half-life period t1/2 ([16]; pH 7.8): 8.5 h; half-life period t1/2 ([16]; pH 10): 19 h |
